GI50 data for four molecules are collected here from patent US10350210B2, “EGFR and ALK dual inhibitor” (PRECEDO PHARMACEUTICALS CO., LTD, priority 2015, dated 2019).

The test system of one experiment is BaF3-TEL-EGFR-T790M. In words: Cell growth (Cell Titer-Glo viability), BaF3-TEL-EGFR-T790M. Format: cell-based. The note with it: Mus musculus; BaF3-TEL-EGFR-T790M (EGFR T790M mutant kinase), 72 hrs. From the text: (§1) By testing the effect of the novel kinase inhibitors on the proliferation of cancer cells, the selectivity of the compounds of the present disclosure in inhibiting the proliferation of cancer cells was further assessed. In this example, human non-small cell lung cancer cell NCI-H1975 (expressing EGFR L858R/T790M double mutant gene), human skin squamous carcinoma cell A431 (expressing wild-type EGFR gene), non-small cell lung cancer NCI-H3255 (expressing EGFR L858R mutant gene), non-small cell lung cancer cell NCI-H3122 (expressing ALK gene), human non-small cell lung cancer cell A549 (expressing wild-type EGFR gene), human non-small cell lung cancer cell NCI-H2122 (expressing wild-type EGFR gene), human non-small cell lung cancer cell NCI-H460 (expressing wild-type EGFR gene), human non-small cell lung cancer cell PC-9 (expressing EGFR delE746_A750 mutant gene), Chinese hamster ovary cell CHO (Cricetulus griseus, hamster, Chinese, ovary), Chinese hamster lung cell CHL, human non-small cell lung cancer cell HCC827 (expressing mutant EGFR del19 gene), human lung adenocarcinoma cell HCC4006 (expressing mutant EGFR del19 gene), human non-small cell lung cancer cell NCI-H2228 (expressing wild-type ALK gene), and mouse primary B cell BaF3 were used, and the above cells were all purchased from ATCC (US). In addition, mouse BaF3-TEL-ALK (stably expressing ALK kinase), mouse BaF3-ALK-F1174L (stably expressing mutant ALK F1174L kinase), mouse BaF3-NPM-ALK (stably expressing ALK kinase), mouse BaF3-TEL-EGFR (stably expressing EGFR kinase), mouse BaF3-TEL-EGFR-T790M (stably expressing EGFR T790M mutant kinase), mouse BaF3-FL-EGFR-Del19 (stably expressing EGFR delE746_A750 mutant kinase), mouse BaF3-TEL-EGFR-L858R (stably expressing EGFR L858R mutant kinase), mouse BaF3-FL-EGFR-T790M-L858R (stably expressing EGFR T790M/L858R mutant kinase), mouse BaF3-TEL-INSR (stably expressing INSR protein), mouse BaF3-TEL-IGF1R (stably expressing IGF1R Protein), mouse BaF3-EML4-ALK (stably expressing EML4-ALK Protein), mouse BaF3-TEL-JAK3 (stably expressing JAK3 kinase protein), mouse BaF3-TEL-CSF1R (stably expressing CSF1R protein), and mouse BaF3-TEL-ALK-F1196M (stably expressing ALK F1196M mutant kinase) were also used in this example. The above cell lines were all established by our laboratory via the following process: kinase proteins or protein domain sequences of human ALK, ALK F1174L, EGFR, EGFR T790M, EGFR delE746_A750, EGFR L858, EGFR T790M/L858R, INSR, IGF1R, EML4-ALK, JAK3, CSF1R, ALK F1196M were amplified respectively by PCR, and were respectively inserted into MSCV-Puro vector (Clontech) with N-terminal TEL fragments and/or NPM fragments and/or TPR fragments; the resultants were stably transfected into mouse BaF3 cells by the means of retrovirus, and the IL-3 growth factors were removed, and eventually the ALK, ALK F1174L, EGFR, EGFR T790M, EGFR delE746_A750, EGFR L858, EGFR T790M/L858R, INSR, IGF1R, EML4-ALK, JAK3, CSF1R, ALK F1196M-transferred protein dependent cell lines were obtained.
(§2) The number of viable cells was determined quantitatively by a microplate reader using Cell Titer-Glo® (Promega, US) chemiluminescence cell viability assay kit.

Another experiment has as its system NCI-H3122. In words: Growth of cancer cells (Cell Titer-Glo viability), NCI-H3122. In kind it is cell-based. The note with it: Homo sapiens; NCI-H3122 (expressing ALK gene), 72 hrs; read-out: GI50.
The next experiment concerns BaF3-NPM-ALK. In words: Cell growth (Cell Titer-Glo viability), BaF3-NPM-ALK. In kind it is cell-based. The note with it: Mus musculus; BaF3-NPM-ALK (stably expressing ALK kinase), 72 hrs.
From the text: as §1, §2

A further experiment deals with BaF3-TEL-ALK. In words: Cell growth (Cell Titer-Glo viability), BaF3-TEL-ALK. The note with it: Mus musculus; BaF3-TEL-ALK (stably expressing ALK kinase), 72 hrs. Format: cell-based. The procedure, abridged:
(§3)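 Luminescent ATP-based viability (CellTiter-Glo) measured viable cell number after compound exposure. Engineered lines were murine BaF3 made growth-factor independent by a TEL-kinase fusion and IL-3 removal. The human lung cancer lines harbor EGFR del19 (HCC827) or EGFR L858R (NCI-H3255).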

For another experiment, the system named is PC-9. In words: Growth of cancer cells (Cell Titer-Glo viability), PC-9. Format: cell-based. The note with it: Homo sapiens; PC-9 (EGFR delE746_A750 mutant), 72 hrs. The procedure, abridged: (§4)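 Cells are counted as viable by CellTiter-Glo chemiluminescence. Murine BaF3 lines depend on a stably transfected TEL-fused kinase after IL-3 withdrawal, and the NSCLC lines express mutant EGFR.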

In another experiment the test system is NCI-H3255. Put plainly: Growth of cancer cells (Cell Titer-Glo viability), NCI-H3255. Format: cell-based. The note with it: Homo sapiens; NCI-H3255 (EGFR L858R mutant), 72 hrs.
From the text: as §1, §2

For the next experiment, the system named is A549. In words: Growth of cancer cells (Cell Titer-Glo viability), A549. The note with it: Homo sapiens; A549 (wild-type EGFR), 72 hrs. In kind it is cell-based.
The next experiment deals with BaF3-TEL-EGFR. Put plainly: Cell growth (Cell Titer-Glo viability), BaF3-TEL-EGFR. The note with it: Mus musculus; BaF3-TEL-EGFR (stably expressing EGFR kinase), 72 hrs. In kind it is cell-based.
From the text: as §1, §2

The next experiment relates to HCC4006. Put plainly: Growth of cancer cells (Cell Titer-Glo viability), HCC4006. Format: cell-based. The note with it: Homo sapiens; HCC4006 (mutant EGFR del19), 72 hrs.
From the text: as §1, §2

A further experiment concerns HCC827. Put plainly: Growth of cancer cells (Cell Titer-Glo viability), HCC827. Format: cell-based. The note with it: Homo sapiens; HCC827 (mutant EGFR del19), 72 hrs. The procedure, abridged: as §3
The next experiment relates to NCI-H460. Put plainly: Growth of cancer cells (Cell Titer-Glo viability), NCI-H460. In kind it is cell-based. The note with it: Homo sapiens; NCI-H460 (wild-type EGFR), 72 hrs.
From the text: as §1, §2

The next experiment has as its system NCI-H2228. Put plainly: Growth of cancer cells (Cell Titer-Glo viability), NCI-H2228. In kind it is cell-based. The note with it: Homo sapiens; NCI-H2228 (wild-type ALK), 72 hrs.
The subject of the next experiment is NCI-H2122. In words: Growth of cancer cells (Cell Titer-Glo viability), NCI-H2122. Format: cell-based. The note with it: Homo sapiens; NCI-H2122 (wild-type EGFR), 72 hrs.
Another experiment concerns BaF3-ALK-F1174L. In words: Cell growth (Cell Titer-Glo viability), BaF3-ALK-F1174L. In kind it is cell-based. The note with it: Mus musculus; BaF3-ALK-F1174L (mutant ALK F1174L kinase), 72 hrs. The gist of the method: as §3
In a further experiment the test system is A431. In words: Growth of cancer cells (Cell Titer-Glo viability), A431. The note with it: Homo sapiens, A-431; A431 (wild-type EGFR), 72 hrs; read-out: GI50. Format: cell-based.
The subject of a further experiment is NCI-H1975. Put plainly: Growth of cancer cells (Cell Titer-Glo viability), NCI-H1975. In kind it is cell-based. The note with it: Homo sapiens; NCI-H1975 (EGFR L858R/T790M double mutant), 72 hrs. The gist of the method: as §4
The test system of another experiment is CHO. In words: Cell growth (Cell Titer-Glo viability), CHO. The note with it: Cricetulus griseus; CHO Chinese hamster ovary cell, 72 hrs; read-out: GI50. In kind it is cell-based, Chinese hamster.
The subject of the next experiment is CHL. In words: Cell growth (Cell Titer-Glo viability), CHL. In kind it is cell-based, Chinese hamster. The note with it: Cricetulus griseus; CHL Chinese hamster lung cell, 72 hrs; read-out: GI50.
In the next experiment the test system is BaF3-FL-EGFR-Del19. In words: Cell growth (Cell Titer-Glo viability), BaF3-FL-EGFR-Del19. The note with it: Mus musculus; BaF3-FL-EGFR-Del19 (EGFR delE746_A750 mutant kinase), 72 hrs. Format: cell-based.
From the text: as §1, §2

In the next experiment the test system is BaF3. In words: Cell growth (Cell Titer-Glo viability), BaF3. The note with it: BaF3 mouse primary B cell, 72 hrs. In kind it is cell-based.

In the case of `COc1cc(N2CCC(N3CCN(C)CC3)CC2)ccc1Nc1ncc(Cl)c(Nc2ccccc2S(=O)(=O)C(C)C)n1` [TAE-684, reference compound], the GI50 in the experiment on BaF3-TEL-EGFR-T790M is 0.42 µM; in the experiment with NCI-H3122 it was less than 0.0003 µM; in the experiment on BaF3-NPM-ALK, less than 0.003 µM; in the experiment on BaF3-TEL-ALK, less than 0.0003 µM; in the experiment on PC-9, 0.54 µM; in the experiment on NCI-H3255 it was 1 µM. For the same molecule, the GI50 with A549 was 1.5 µM; in the experiment on BaF3-TEL-EGFR, 0.56 µM; with HCC4006, 0.44 µM; in the experiment on HCC827 it was 0.37 µM; in the experiment on NCI-H460, 0.47 µM; in the experiment on NCI-H2228, 0.58 µM. The values for the GI50 with NCI-H2122, in the experiment with BaF3-ALK-F1174L and in the experiment with A431 were 0.31 µM, 0.14 µM and 1.3 µM, respectively.
`CCC(=O)Nc1cc(Nc2ncc(Cl)c(Nc3ccccc3S(=O)(=O)C(C)C)n2)c(OC)cc1N1CCC(N2CCN(C)CC2)CC1` [Compound 30, N-(5-(5-chloro-4-(2-(isopropylsulfonyl)phenylamino)pyrimidin-2-ylamino)-4-methoxy-2-(4-(4-methylpiperazin-1-yl)piperidin-1-yl)phenyl)propionamide]: the GI50 in the experiment on NCI-H1975 was 0.88 µM; in the experiment on CHO, 1.9 µM; in the experiment with BaF3-TEL-EGFR-T790M, 0.23 µM; in the experiment with NCI-H3122 it was less than 0.0003 µM; in the experiment with BaF3-NPM-ALK it was less than 0.003 µM; with BaF3-TEL-ALK it was less than 0.0003 µM. Also, the concentration for 50% growth inhibition (GI50) was 0.053 µM in the experiment on PC-9; 0.64 µM in the experiment on NCI-H3255; 0.41 µM in the experiment on BaF3-TEL-EGFR; 0.73 µM in the experiment on CHL; 0.26 µM in the experiment on HCC4006; 0.15 µM in the experiment on HCC827. Moreover, the GI50 amounted to 0.44 µM with NCI-H460; 0.28 µM with NCI-H2228; 0.12 µM with BaF3-FL-EGFR-Del19; 0.15 µM in the experiment with NCI-H2122; 0.073 µM in the experiment on BaF3-ALK-F1174L; 0.47 µM in the experiment on BaF3. Further, the GI50 in the experiment on A431 was 0.84 µM.
`C=CC(=O)Nc1cc(Nc2ncc(Cl)c(Nc3ccccc3S(=O)(=O)C(C)C)n2)c(OC)cc1N1CCC(N2CCN(C)CC2)CC1` [Compound 8, N-(5-(5-chloro-4-(2-(isopropylsulfonyl)phenylamino)pyrimidin-2-ylamino)-4-methoxy-2-(4-(4-methylpiperazin-1-yl)piperidin-1-yl)phenyl)acrylamide]: the GI50 in the experiment on NCI-H1975 is 0.045 µM; in the experiment with CHO, 0.46 µM; in the experiment on BaF3-TEL-EGFR-T790M, 0.046 µM; with NCI-H3122 it was less than 0.0003 µM; in the experiment on BaF3-NPM-ALK, less than 0.003 µM; in the experiment with BaF3-TEL-ALK, less than 0.0003 µM. Also, the GI50 stood at 0.053 µM in the experiment on PC-9; 0.11 µM with NCI-H3255; 0.43 µM with BaF3-TEL-EGFR; 0.8 µM with CHL; 0.014 µM in the experiment with HCC4006; 0.0027 µM in the experiment on HCC827. Besides, the GI50 with NCI-H460 is 0.66 µM; in the experiment with NCI-H2228 it was 0.35 µM; in the experiment on BaF3-FL-EGFR-Del19, 0.002 µM; in the experiment with NCI-H2122, 0.2 µM; in the experiment on BaF3-ALK-F1174L, 0.029 µM; in the experiment with BaF3 it was 0.46 µM. Also, the GI50 in the experiment on A431 was 0.37 µM.
As to `C=CC(=O)Nc1cc(Nc2ncc(C)c(Nc3ccccc3S(=O)(=O)C(C)C)n2)c(OC)cc1N1CCC(N2CCN(C)CC2)CC1` [Compound 24, N-(5-(4-(2-(isopropylsulfonyl)phenylamino)-5-methylpyrimidin-2-ylamino)-4-methoxy-2-(4-(4-methylpiperazin-1-yl)piperidin-1-yl)phenyl)acrylamide], the GI50 in the experiment with NCI-H1975 is 0.059 µM; in the experiment with CHO it was 1.7 µM; in the experiment with BaF3-TEL-EGFR-T790M, 0.1 µM; in the experiment with NCI-H3122, less than 0.0003 µM; with BaF3-NPM-ALK it was 0.002 µM; in the experiment on BaF3-TEL-ALK, less than 0.0003 µM. Moreover, the GI50 came out at 0.05 µM with PC-9; 0.13 µM in the experiment on NCI-H3255; 0.81 µM with BaF3-TEL-EGFR; 0.66 µM with CHL; 0.014 µM in the experiment on HCC4006; 0.0062 µM with HCC827. The GI50 with NCI-H460 was 0.68 µM; in the experiment on NCI-H2228, 0.33 µM; with BaF3-FL-EGFR-Del19, 0.002 µM; with NCI-H2122 it was 0.23 µM; in the experiment with BaF3-ALK-F1174L, 0.016 µM; in the experiment on BaF3, 1.6 µM. Also, the GI50 with A431 stood at 0.44 µM.
